In US20140357512A1, “HISTONE DEACETYLASE (HDAC) BIOMARKERS IN MULTIPLE MYELOMA” (priority 2013, published 2014):

Test system: human myeloma cell line MM.1S
Experiment: SILAC acetylated-lysine peptide profiling, HDAC inhibitor vs DMSO (light/heavy ratio)
Assay type: cell-based
Excerpt: An embodiment of the invention comprises utilizing the SILAC method in order to quantitate changes in protein expression between two or more populations of cells. The SILAC method is a technique based on mass spectrometry that detects differences in protein abundance among samples using non-radioactive isotopic labeling. The SILAC method is known in the art, and described in detail in Ong et al., “Stable Isotope Labeling by Amino Acids in Cell Culture, SILAC, as a Simple and Accurate Approach to Expression Proteomics”, Molecular & Cellular Proteomics, vol. 1, pp. 376-386 (2002), which is incorporated herein by reference in its entirety.
Briefly, the SILAC method involves growing two populations of cells in cell culture. The first population of cells is grown in growth media containing normal amino acids (“normal media”). The second population of cells is grown in media lacking a standard essential amino acid (such as lysine), but is then supplemented with a non-radioactive, isotopically labeled form of that essential amino acid (such as lysine labeled with ^13C atoms, rather than normal ^12C atoms), which is called “heavy media”. When the two populations of cells are each growing in the medium, they incorporate the amino acids into all of their proteins. The growth of cells maintained in the heavy media is no different from that in normal media. All peptides containing the heavy amino acids are heavier than their normal counterparts. The cells from each of the two populations of cells are lysed. The lysates from each of the two cell populations are then combined. The combined cell lysates are then analyzed by mass spectrometry. Pairs of chemically identical peptides of different stable isotope composition can be differentiated in a mass spectrometer due to their difference in mass. The ratio of peak intensities in the mass spectrum for such peptide pairs reflects the abundance ratio for the two proteins.
This example describes SILAC studies that were performed to compare the effects of three different HDAC inhibitors (Compound A, Compound B, and tubastatin A) to a control on a human multiple myeloma cell line. The HDAC inhibitors were also compared amongst themselves to determine differences in their effects.
A human myeloma cell line MM.1S was grown using either ^12C (light) or ^13C (heavy) lysine containing culture medium. The “heavy” cells were treated with DMSO as the control, and the “light” cells were treated with a single HDAC inhibitor at 37° C. for 6 hours. The heavy and light cells were lysed, and the lysates were mixed in 1:1 ratio and digested with the protease trypsin. The acetylated lysine containing peptides (due to the action of the HDAC inhibitor) in the digested peptide pool were captured by a non-specific anti-acetylated lysine antibody cocktail (the antibodies identify both light and heavy acetylated peptides), and subjected to mass spectrometry analysis in order to identify thousands of individual peptides.
Thousands of peptides were identified in pairs (^12C and ^13C) due to their known mass differences. The amino acid sequence and quantitative ratio (Light/Heavy) of a given peptide in two differentially treated cell lysates were then determined and annotated with their possible protein (gene) sources.
As stated above, three HDAC inhibitors (Compound A, Compound B, and Tubastatin A) were used. Thus, the SILAC method was performed three times, with a different HDAC inhibitor compared to a control each time. Accordingly, there are three pairs of quantitative data in the table below, i.e., Compound A:DMSO, Compound B:DMSO, and Tubastatin A:DMSO. A cut-off of 1.30 fold of change (increase or decrease) was then used to determine “changed” or “+” in the table, and any peptides with a fold of change less than 1.3 fold were determined to be “unchanged” or “0” in the table. Those peptides that were not identified were marked as “NA” in the table. […]

O=C(CCCCCCNC(=O)c1cnc(N(c2ccccc2)c2ccccc2)nc1)NO [Compound A, 2-(diphenylamino)-N-(7-(hydroxyamino)-7-oxoheptyl)pyrimidine-5-carboxamide]
0.66 log 2: L/H ratio of acetylated peptide (ac)ASNK(ac)TTLQK (SEQ ID NO: 693, Chromobox protein homolog 3 [5], CBX3) | L/H ratio of acetylated peptide GYLADPAK(ac)FPEAR (SEQ ID NO: 694, 39S ribosomal protein L15 mitochondrial [228], MRPL15) | L/H ratio of acetylated peptide SCEIK(ac)FLTFK (SEQ ID NO: 695, Isoform 2 of 39S ribosomal protein L39 mitochondrial [126], MRPL39)
0.62 log 2: L/H ratio of acetylated peptide KVPFGK(ac)TYCCDLK (SEQ ID NO: 680, Mitochondrial carrier homolog 2 [293], MTCH2) | L/H ratio of acetylated peptide TK(ac)[…] (SEQ ID NO: 681, Isoform 1 of Structural maintenance of chromosomes protein 2 [1160], SMC2)
0.60 log 2: L/H ratio of acetylated peptide LTSDDVK(ac)EQIYK (SEQ ID NO: 669, 40S ribosomal protein S13 [34], RPS13) | L/H ratio of acetylated peptide SCNCLLLK(ac)[…] (SEQ ID NO: 670, Isoform alpha-enolase of Alpha-enolase [343], ENO1) | L/H ratio of acetylated peptide […](ac)FLIK (SEQ ID NO: 671, Methyltransferase-like protein 7A [105], METTL7A) | L/H ratio of acetylated peptide […](ac)QLK (SEQ ID NO: 672, Annexin A6 [442], ANXA6) | L/H ratio of acetylated peptide EVK(ac)LLLLGAGESGK (SEQ ID NO: 673, Guanine nucleotide-binding protein G(k) subunit alpha [35], GNAI3) | L/H ratio of acetylated peptide […](ac)LR (SEQ ID NO: 674, Isoform 1 of Vesicle-associated membrane protein-associated protein A [125], VAPA) | L/H ratio of acetylated peptide YNWSAK(ac)AK (SEQ ID NO: 675, 60S ribosomal protein L37 [52], RPL37) | L/H ratio of acetylated peptide GNK(ac)PWISLPR (SEQ ID NO: 676, 40S ribosomal protein S4 X isoform [233], RPS4X)
0.64 log 2: L/H ratio of acetylated peptide IPVPVQK(ac)NIDQQIK (SEQ ID NO: 683, Isoform 1 of Pre-mRNA-splicing factor 38B [227], PRPF38B) | L/H ratio of acetylated peptide […](ac)K (SEQ ID NO: 684, Protein disulfide-isomerase [207], P4HB) | L/H ratio of acetylated peptide VDIRPQLLK(ac)NALQR (SEQ ID NO: 685, Isoform 1 of Heterochromatin protein 1-binding protein 3 [302], HP1BP3) | L/H ratio of acetylated peptide NQK(ac)LTATTQK (SEQ ID NO: 686, Nucleoprotein TPR [748], TPR)
0.61 log 2: L/H ratio of acetylated peptide […](ac)NK (SEQ ID NO: 677, Isoform Long of ES1 protein homolog mitochondrial [233], C21orf33) | L/H ratio of acetylated peptide LENDK(ac)SFR (SEQ ID NO: 678, Isoform 1 of Enoyl-CoA delta isomerase 1 mitochondrial [89], ECI1) | L/H ratio of acetylated peptide LVAMK(ac)FLR (SEQ ID NO: 679, Isoform 1 of Nucleoside diphosphate kinase B [39], NME1, NME2, NME1-NME2)
0.65 log 2: L/H ratio of acetylated peptide YYK(ac)NIGLGFK (SEQ ID NO: 687, 40S ribosomal protein S11 [38], RPS11) | L/H ratio of acetylated peptide SGK(ac)YDLDFK (SEQ ID NO: 688, Isoform alpha-enolase of Alpha-enolase [256], ENO1) | L/H ratio of acetylated peptide LYGDLK(ac)HLK (SEQ ID NO: 689, cDNA FLJ61478 highly similar to Succinate dehydrogenase (ubiquinone) flavoprotein subunit mitochondrial [547], SDHA) | L/H ratio of acetylated peptide VENEAEK(ac)DLQCHAPVR (SEQ ID NO: 690, Isoform 1 of Bromodomain-containing protein 7 [103], BRD7) | L/H ratio of acetylated peptide DSLYK(ac)[…] (SEQ ID NO: 691, Isoform 1 of Clathrin heavy chain 1 [1535], CLTC) | L/H ratio of acetylated peptide TISAK(ac)YAEER (SEQ ID NO: 692, Isoform 1 of Myosin-9 [1459], MYH9)
0.57 log 2: L/H ratio of acetylated peptide FIK(ac)IDGK (SEQ ID NO: 660, 40S ribosomal protein S4 X isoform [71], RPS4X)
0.58 log 2: L/H ratio of acetylated peptide LAMVK(ac)AEPDVK (SEQ ID NO: 661, NADH dehydrogenase [ubiquinone] 1 alpha subcomplex subunit 5 [60], NDUFA5) | L/H ratio of acetylated peptide NEK(ac)LFYR (SEQ ID NO: 662, NADP-dependent malic enzyme mitochondrial [119], ME3) | L/H ratio of acetylated peptide K(ac)FVCPECSK (SEQ ID NO: 663, Isoform 1 of Transcription factor Sp3 [680], SP3) | L/H ratio of acetylated peptide DLSLDDFK(ac)GK (SEQ ID NO: 664, Thioredoxin-dependent peroxide reductase mitochondrial [91], PRDX3) | L/H ratio of acetylated peptide DLTDYLMK(ac)ILTER (SEQ ID NO: 665, Beta-actin-like protein 2 [192], ACTBL2) | L/H ratio of acetylated peptide HGASPELQK(ac)QIR (SEQ ID NO: 666, Peroxisomal membrane protein 11B [43], PEX11B)
0.63 log 2: L/H ratio of acetylated peptide LAQLEEAK(ac)[…] (SEQ ID NO: 682, ATP synthase subunit b mitochondrial [139], ATP5F1)
0.59 log 2: L/H ratio of acetylated peptide LNQLK(ac)PGLQYK (SEQ ID NO: 667, Isoform 5 of Interleukin enhancer-binding factor 3 [413], ILF3) | L/H ratio of acetylated peptide ISK(ac)LYGDLK (SEQ ID NO: 668, cDNA FLJ61478 highly similar to Succinate dehydrogenase (ubiquinone) flavoprotein subunit mitochondrial [541], SDHA)
